Measured values from patent US20250051319A1 (AUGUSTINE THERAPEUTICS, priority 2021, published 2025).

Experiments:
[1] = biological target: catalytic domain 2 (CD2) of HDAC6 (Homo sapiens (Human), UniProt Q9UBN7); assay: Cellular target engagement assay - NanoBRET; assay type: cell-based; conditions: NanoLuc-HDAC6(CD2) in HEK293T cells, 2 hours, read-out: IC50 (HDAC6(CD2) interaction)
[2] = biological target: T1, human full-length recombinant HDAC6 (Homo sapiens (Human), UniProt Q9UBN7); assay: HDAC6 enzymatic activity assay (Reaction Biology Corporation, RHKKAc fluorogenic peptide); assay type: biochemical; conditions: Reaction Biology Corporation protocol, RHKKAc fluorogenic peptide 10 μM; read-out: HDAC6 biochem
T1 sequence (Q9UBN7 whole entry): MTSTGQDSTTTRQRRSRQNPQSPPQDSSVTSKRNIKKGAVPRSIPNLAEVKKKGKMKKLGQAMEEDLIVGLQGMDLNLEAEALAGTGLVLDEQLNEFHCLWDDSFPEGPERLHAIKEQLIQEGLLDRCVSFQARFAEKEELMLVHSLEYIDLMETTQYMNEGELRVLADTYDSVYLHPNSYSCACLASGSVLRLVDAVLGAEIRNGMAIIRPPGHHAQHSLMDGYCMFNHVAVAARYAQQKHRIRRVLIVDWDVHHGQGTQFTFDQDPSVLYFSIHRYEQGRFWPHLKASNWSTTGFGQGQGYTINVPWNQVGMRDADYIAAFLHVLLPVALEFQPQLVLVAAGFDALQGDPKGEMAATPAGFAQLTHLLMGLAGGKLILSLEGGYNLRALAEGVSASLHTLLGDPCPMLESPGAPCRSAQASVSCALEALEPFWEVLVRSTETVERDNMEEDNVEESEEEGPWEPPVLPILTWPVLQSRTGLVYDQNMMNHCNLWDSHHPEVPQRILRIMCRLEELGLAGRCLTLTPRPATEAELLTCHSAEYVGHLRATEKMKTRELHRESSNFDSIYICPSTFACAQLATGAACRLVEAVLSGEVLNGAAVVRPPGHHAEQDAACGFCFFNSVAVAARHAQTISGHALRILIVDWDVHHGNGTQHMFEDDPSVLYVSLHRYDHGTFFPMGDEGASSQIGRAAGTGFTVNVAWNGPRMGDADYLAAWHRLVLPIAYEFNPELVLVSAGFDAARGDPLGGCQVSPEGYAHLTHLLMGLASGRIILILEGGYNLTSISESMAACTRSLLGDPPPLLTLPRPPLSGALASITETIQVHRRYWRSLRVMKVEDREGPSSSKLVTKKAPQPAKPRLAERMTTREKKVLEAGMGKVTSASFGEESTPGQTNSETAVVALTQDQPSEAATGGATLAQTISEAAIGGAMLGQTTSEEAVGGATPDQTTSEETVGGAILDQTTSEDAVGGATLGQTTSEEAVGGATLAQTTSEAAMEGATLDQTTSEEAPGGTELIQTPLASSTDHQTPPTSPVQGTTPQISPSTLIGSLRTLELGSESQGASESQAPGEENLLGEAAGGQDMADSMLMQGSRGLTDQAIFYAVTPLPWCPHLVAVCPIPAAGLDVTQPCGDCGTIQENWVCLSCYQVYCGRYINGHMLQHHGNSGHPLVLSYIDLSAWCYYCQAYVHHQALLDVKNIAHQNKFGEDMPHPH
Method: (§1) Dose response testing of HDAC6 and HDAC 1 were run at Reaction Biology Corporation (RBC). Inhibition of HDAC enzymes was performed using N-terminal GST tagged human full-length recombinant HDAC6 (H88-30G, SignalChem) and C-terminal FLAG His tag human full-length recombinant HDAC1 produced in insect cells (KDA-21-365, RBC). Enzyme reactions were run in 50 mM Tris-HCl, pH8.0, 137 mM NaCl, 2.7 mM KCl, and 1 mM MgCl2 with 1 mg/ml BSA, 1% DMSO freshly added. 2× enzyme was delivered in the wells of the reaction plate except for the “no enzyme” control wells. In the latter, buffer was added. Compounds in 100% DMSO were delved into the enzyme mixture by acoustic technology (Echo550). Plates are spun down and compounds were incubation with the enzyme for 10 min at room temperature. 2× Fluorogenic peptide from p53 residues 379-382 (RHKKAc, 10 μM final concentration) was added in all wells to initiate the reaction, followed by 1 h incubation at 30° C. Developer containing Trichostatin A was added to stop the reaction and generate fluorescent color. A kinetic measurement was carried out for 20 min with 5 min interval on the Envision plate reader (Perkin Elmer, Ex/Em=360/460). End point reading i.e., plateau of the development reaction was used for analysis. Data was reported by RBC as percentage enzyme activity. Percentage inhibition was calculated by subtracting percentage enzyme activity from 100. IC50 values were calculated using GraphPad Prism 9 based on the log(inhibitor) vs. response—Variable slope (four parameters) equation.

[3] = biological target: T2, human full-length recombinant HDAC1 (Homo sapiens (Human), UniProt Q13547); assay: HDAC1 enzymatic activity assay (Reaction Biology Corporation, RHKKAc fluorogenic peptide); assay type: biochemical; conditions: Reaction Biology Corporation protocol, RHKKAc fluorogenic peptide 10 μM; read-out: HDAC1 biochem
T2 sequence (Q13547 whole entry): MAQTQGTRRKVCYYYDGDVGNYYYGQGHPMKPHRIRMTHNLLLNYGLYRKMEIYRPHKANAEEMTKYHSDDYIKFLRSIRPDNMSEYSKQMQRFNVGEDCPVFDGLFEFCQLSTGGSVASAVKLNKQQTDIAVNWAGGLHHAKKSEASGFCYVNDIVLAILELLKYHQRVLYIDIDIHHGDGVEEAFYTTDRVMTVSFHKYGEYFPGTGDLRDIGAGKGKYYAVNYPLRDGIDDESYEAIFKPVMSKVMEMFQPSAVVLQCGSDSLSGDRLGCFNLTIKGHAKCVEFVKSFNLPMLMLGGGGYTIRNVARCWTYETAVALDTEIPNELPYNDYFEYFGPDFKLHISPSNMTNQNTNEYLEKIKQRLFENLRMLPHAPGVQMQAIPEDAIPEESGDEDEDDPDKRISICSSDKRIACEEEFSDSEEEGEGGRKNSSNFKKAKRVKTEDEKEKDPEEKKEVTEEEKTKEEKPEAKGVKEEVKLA
Method: as §1

[4] = biological target: T1, human full-length recombinant HDAC6; assay: HDAC6 enzymatic activity assay (alternative protocol, Ac-Gly-Ala-Lys(Ac)-AMC); assay type: biochemical; conditions: 5 nM enzyme, read-out: HDAC6 biochem
Outline: (§2)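 Sf9-expressed enzymes (4 nM HDAC1, 5 nM HDAC6) preincubated 10 min at RT with compound, then 60 min with Ac-Gly-Ala-Lys(Ac)-AMC ([…] HDAC1, 40 µM HDAC6); pH 8.0 Tris buffers, HDAC6 buffer with EDTA and DTT. Trypsin/SAHA developer stop, fluorescence 360/450 nm after 15 min; normalized to DMSO (100%) and 10 μM SAHA (0%).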

[5] = biological target: T2, human full-length recombinant HDAC1; assay: HDAC1 enzymatic activity assay (alternative protocol, Ac-Gly-Ala-Lys(Ac)-AMC); assay type: biochemical; conditions: 4 nM enzyme, read-out: HDAC1 biochem
Outline: as §2

catalytic domain 2 (CD2) of HDAC6, sequence (Q9UBN7 482-800): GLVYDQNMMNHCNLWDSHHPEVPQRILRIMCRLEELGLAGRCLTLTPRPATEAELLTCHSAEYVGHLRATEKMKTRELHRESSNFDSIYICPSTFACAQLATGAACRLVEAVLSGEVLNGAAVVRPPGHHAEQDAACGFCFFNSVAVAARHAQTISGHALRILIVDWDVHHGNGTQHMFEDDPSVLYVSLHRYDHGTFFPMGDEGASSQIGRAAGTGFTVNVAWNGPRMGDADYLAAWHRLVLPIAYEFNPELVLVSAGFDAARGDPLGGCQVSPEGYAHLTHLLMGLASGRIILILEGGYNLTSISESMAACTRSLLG

| IC50 [1] [nM] | IC50 [2] [nM] | IC50 [3] [nM] | IC50 [4] [nM] | IC50 [5] [nM] | Compound |
| --- | --- | --- | --- | --- | --- |
| 1000 to 10000 | ≤ 100 | > 10000 | ≤ 100 | > 10000 | Cn1ncc2c(SCC(=O)c3ccc(CNC(=O)C4CC4)s3)ncnc21 [Example 31, N-((5-(2-((1-methyl-1H-pyrazolo[3,4-d]pyrimidin-4-yl)thio)acetyl)thiophen-2-yl)methyl)cyclopropanecarboxamide] |
| 100 to 500 | ≤ 100 | > 10000 |  |  | O=C(CSc1nc(C(F)(F)F)nc2nn(C3CC3)cc12)c1ccc(CNC(=O)C2CC2(F)F)s1 (centres unmarked) [Example 43, N-((5-(2-((2-cyclopropyl-6-(trifluoromethyl)-2H-pyrazolo[3,4-d]pyrimidin-4-yl)thio)acetyl)thiophen-2-yl)methyl)-2,2-difluorocyclopropane-1-carboxamide] |
| 100 to 500 | ≤ 100 | > 10000 |  |  | O=C(CSc1nc(C(F)(F)F)nc2nn(C3CC3)cc12)c1ccc(CNC(=O)C(F)(F)C(F)(F)F)s1 [Example 44, N-((5-(2-((2-cyclopropyl-6-(trifluoromethyl)-2H-pyrazolo[3,4-d]pyrimidin-4-yl)thio)acetyl)thiophen-2-yl)methyl)-2,2,3,3,3-pentafluoropropanamide] |
| ≤ 100 | ≤ 100 | > 10000 |  |  | COc1ccc2nc(C)nc(SCC(=O)c3ccc(CNC(=O)CO)s3)c2c1 [Example 60, 2-Hydroxy-N-((5-(2-((6-methoxy-2-methylquinazolin-4-yl)thio)acetyl)thiophen-2-yl)methyl)acetamide] |
| ≤ 100 | ≤ 100 | > 10000 |  |  | O=C(CSc1nc(C(F)(F)F)nc2ncccc12)c1ccc(CN2CCOCC2=O)s1 [Example 138, 4-((5-(2-((2-(trifluoromethyl)pyrido[2,3-d]pyrimidin-4-yl)thio)acetyl)thiophen-2-yl)methyl)morpholin-3-one] |
